≈ marks a conversion by molar mass, not a printed value. Where two headings read alike, the source gives them in different places. Residues, ends and D or L forms follow the SMILES beside them.
Columns and labels:
[1] = pH stability of formulations with TMAB or SMS during electrotransport (Example 4); type: in vivo, hairless guinea pigs; conditions: for pH control with TMAB or SMS: all experimental conditions tested (Table 7)
Source text: The effect of the zwitterionic buffer Gly-His and His-Glu on pH stability of formulations containing small molecular weight drug-like compounds during electrotransport to hairless guinea pigs was studied. Trimethylammonium bromide (TMAB) was used as the cationic model drug and sodium methanesulfate (SMS) was used as the model anionic drug.
The electrodes were connected to a DC power source which supplied a constant level of electric current of 0.100 mA/cm^2. The anodic electrode assembly comprised a skin-contacting gel containing the aqueous solution of His-Glu 66 mM or Gly-His 45 mM and TMAB at 50 mM and 3% HEC. This formulation was separated from the silver anode by a Sybron ion exchange membrane. A gel containing 0.15 M sodium chloride (which acted as a chloride source) was placed between the silver anode and the ion exchange membrane. The cathodic electrode assembly comprised a skin-contacting gel containing the aqueous solution of His-Glu 66 mM or Gly-His 45 mM and SMS 50 mM and 3% HEC. The cathodic gel reservoir was separated from the silver chloride cathode by a Nafion ion exchange membrane. A gel containing 0.1 5M sodium chloride was placed between the cathode and the ion exchange membrane. The ionic strength of the skin-contacting gels was 60 mM.
Experiments were performed in vivo in hairless guinea pigs. Two animals were used for each condition studied. The electrotransport systems were applied to and removed from the backs of the animals. The two reservoirs were generally spaced about 5 cm apart. The application site was wiped with 70% isopropyl alcohol wipes prior to system application. Donor reservoir gel pH was measured prior to application and after removal of the systems using a HORIBA compact pH meter (Cardy).

[2] = Solubility of dipeptides at their pI; type: physicochemical
Source text: (§1) Table 1 lists conductivities and solubilities of selected dipeptides useful in the present invention, at their pI.

[3] = In vivo iontophoresis, pH control of anodic and cathodic buffer gels (Example 2); design: species or system hairless guinea pigs; Ionic strength (approx.): unit not given here; conditions: for Anodic pH after 5 h electrotransport / Cathodic pH after 5 h electrotransport: 0.1 mA/cm^2; for pH control of electrotransport formulations: electrotransport experiments in animals; for pH control of electrotransport formulations / pH control of anodic and cathodic electrotransport formulations: at their pI; for pH control of electrotransport formulations / pH control of an anodic electrotransport formulation: for several hours; for pH control of a cathodic electrotransport formulation: for at least 5 hours; for pH control of a cathodic electrotransport formulation / pH control of an anodic electrotransport formulation: dipeptides at their pI; for pH control of anodic and cathodic electrotransport formulations: for up to 24 hours
Procedure: In vivo iontophoresis experiments were performed using custom built electrotransport systems. […] This formulation was separated from the anode electrode by a Sybron ion exchange membrane. […] The cathode-compartment comprised a skin-contacting gel containing the aqueous solution of the buffering agent at the indicated concentration and 3% HEC. This formulation was separated from the cathode electrode by a Nafion ion exchange membrane. […] The electrodes were connected to a DC power source which supplied a constant level of electric current of 0.1 mA/cm^2. Experiments were performed in vivo in hairless guinea pigs. Three animals were used for each condition studied. The electrotransport systems were applied to and removed from the flank of the animals. The two reservoirs were generally spaced about 5 cm apart. The application site was wiped with water prior to system application. pH of the gels was measured prior to application and after removal of the systems using a HORIBA compact pH […]).

[4] = pKa, pI and charge distribution of buffers; conditions: for % salt: fraction of dipeptide carrying a net charge in aqueous solution at pH equal to pI
Source text: At the pI, three species coexist.
In an electric field these negative species move in the opposite direction of their positive associated counterions.
Choice of the dipeptide buffer will be on a case-by-case basis depending on the drug compound and the desired level of pH control and conductivity of the formulation.

[5] = Conductivity of dipeptides at their pI; type: physicochemical
Source text: as §1

[6] = Donor reservoir gel pH during electrotransport of DECAD (Example 3); type: in vivo, hairless guinea pigs
Procedure: The effect of the zwitterionic buffer Gly-His at pH 7.5 (pI) on the transdermal delivery of a synthetic radiolabeled decapeptide (DECAD) in the hairless guinea pig was evaluated. […] At pH 7.5 the net charge of DECAD is about +1.6.
The electrodes were connected to a DC power source which supplied a constant level of electric current of 0.100 mA/cm2. The anodic reservoir comprised a skin-contacting gel containing the aqueous solution of the buffering agent and DECAD at the indicated concentrations and 3% hydroxyethyl cellulose (HEC) as well as 10% cholestyramine, a high molecular weight resin in chloride salt form which contributes chloride ions into the donor solution without introducing mobile cations which compete with the DECAD for delivery into the animal. The chloride ions from the cholestyramine resin are provided to react with any silver ions which are generated by electrochemical oxidation of the silver foil anode, thereby removing silver cations (ie, as potentially competing with the DECAD cations) from the donor solution. The cathodic reservoir contained a 0.15 M aqueous solution of sodium chloride in an HEC gel.
Experiments were performed in vivo in hairless guinea pigs. Three animals were used for each condition studied. The electrotransport systems were applied to and removed from the flank of the animals. The two reservoirs were generally spaced about 5 cm apart. The application site was wiped with water prior to system application. […] Donor reservoir gel pH was measured prior to application and after removal of the systems using a HORIBA compact pH meter (Cardy).

[7] = Gly-His 10 mM, DECAD 5 mM, wearing time 5 h
[8] = Gly-His 30 mM, DECAD 5 mM, wearing time 5 h
[9] = Gly-His 100 mM, DECAD 0.5 mM, wearing time 5 h
[10] = Gly-His 100 mM, DECAD 5 mM, wearing time 5 h
[11] = Gly-His 100 mM, DECAD 5 mM, wearing time 24 h
[12] = Gly-His 250 mM, DECAD 5 mM, wearing time 5 h

SMILES: N[C@@H](Cc1cnc[nH]1)C(=O)N[C@@H](CCC(=O)O)C(=O)O [His-Glu] (H-His-Glu-OH)
- Final pH ([1]; Anode, drug TMAB 50 mM): 5.3
- Initial pH ([1]; Anode, drug TMAB 50 mM): 5.1
- Final pH ([1]; Cathode, drug SMS 50 mM): 6.0
- Initial pH ([1]; Cathode, drug SMS 50 mM): 5.2
- pH control with TMAB or SMS [1]: good pH control
- Solubility [2]: 0.40 mol/L (≈ 114 mg/mL)
- pH after 24 h electrotransport ([3]; Anode, listed as His-Glu 100 mM): 5.5
- pH after 24 h electrotransport ([3]; Anode, listed as His-Glu 250 mM): 5.4
- pH after 24 h electrotransport ([3]; Cathode, listed as His-Glu 100 mM): 5.4
- pH after 24 h electrotransport ([3]; Cathode, listed as His-Glu 250 mM): 5.2
- Ionic strength (approx.) ([3]; Table 3, anodic buffer gel, listed as His-Glu 100 mM): ~0.015
- Ionic strength (approx.) ([3]; Table 3, anodic buffer gel, listed as His-Glu 250 mM): ~0.037
- Ionic strength (approx.) ([3]; Table 4, cathodic buffer gel, listed as His-Glu 100 mM): ~0.015
- Ionic strength (approx.) ([3]; Table 4, cathodic buffer gel, listed as His-Glu 250 mM): ~0.037
- Initial pH ([3]; Table 5, Anode, listed as His-Glu 100 mM): 5.1
- Initial pH ([3]; Table 5, Anode, listed as His-Glu 250 mM): 5.2
- Initial pH ([3]; Table 5, Cathode): 5.3
- Anodic pH after 5 h electrotransport ([3]; anodic gel): 5.2
- Initial pH ([3]; anodic gel, prior to application, listed as His-Glu 100 mM): 5.1
- Initial pH ([3]; anodic gel, prior to application, listed as His-Glu 250 mM): 5.2
- Cathodic pH after 5 h electrotransport ([3]; cathodic gel): 5.0
- Initial pH ([3]; cathodic gel, prior to application): 5.3
- pH control of electrotransport formulations [3]: capable of assuring pH control
- pH control of a cathodic electrotransport formulation [3]: capable of assuring pH control
- pH control of an anodic electrotransport formulation [3]: capable of assuring pH control
- pH control of anodic and cathodic electrotransport formulations [3]: capable of assuring pH control
- pI [4]: 5.2
- pI ([4]; Table 1): 5.20
- pI ([4]; Table 2): 5.20
- species presenting a net charge (salt form) at the pI ([4]; at pI): about 15%
- % salt [4]: 15%
- Conductivity at 10^−2 Molar [5]: 40 μS/cm

SMILES: NCC(=O)N[C@@H](Cc1cnc[nH]1)C(=O)O [Gly-His] (H-Gly-His-OH)
- Final pH ([1]; Anode, drug TMAB 50 mM): 6.9
- Initial pH ([1]; Anode, drug TMAB 50 mM): 7.4
- Final pH ([1]; Cathode, drug SMS 50 mM): 7.9
- Initial pH ([1]; Cathode, drug SMS 50 mM): 7.5
- pH control with TMAB or SMS [1]: good pH control
- Final pH [6, 7]: 7.0
- Initial pH [6, 7]: 6.9
- Final pH [6, 8]: 7.0
- Initial pH [6, 8]: 7.1
- Final pH [6, 9]: 7.2
- Initial pH [6, 9]: 7.3
- Final pH [6, 10]: 7.3
- Initial pH [6, 10]: 7.4
- Final pH [6, 11]: 7.3
- Initial pH [6, 11]: 7.4
- Final pH [6, 12]: 7.3
- Initial pH [6, 12]: 7.4
- pH control with DECAD ([6]; all experimental conditions tested (Table 6)): capable of assuring pH control
- Solubility [2]: 1.00 mol/L (≈ 212 mg/mL)
- pH after 24 h electrotransport ([3]; Anode): 7.2
- pH after 24 h electrotransport ([3]; Cathode, listed as Gly-His 100 mM): 7.3
- pH after 24 h electrotransport ([3]; Cathode, listed as Gly-His 250 mM): 7.0
- Ionic strength (approx.) ([3]; Table 3, anodic buffer gel, listed as Gly-His 30 mM): ~0.007
- Ionic strength (approx.) ([3]; Table 3, anodic buffer gel, listed as Gly-His 100 mM): ~0.02
- Ionic strength (approx.) ([3]; Table 3, anodic buffer gel, listed as Gly-His 250 mM): ~0.06
- Ionic strength (approx.) ([3]; Table 4, cathodic buffer gel, listed as Gly-His 100 mM): ~0.02
- Ionic strength (approx.) ([3]; Table 4, cathodic buffer gel, listed as Gly-His 250 mM): ~0.06
- Initial pH ([3]; Table 5, Anode, listed as Gly-His 100 mM): 7.3
- Initial pH ([3]; Table 5, Anode, listed as Gly-His 250 mM): 7.2
- Initial pH ([3]; Table 5, Cathode, listed as Gly-His 100 mM): 7.6
- Initial pH ([3]; Table 5, Cathode, listed as Gly-His 250 mM): 6.9
- Anodic pH after 5 h electrotransport ([3]; anodic gel, listed as Gly-His 30 mM): 7.0
- Anodic pH after 5 h electrotransport ([3]; anodic gel, listed as Gly-His 100 mM): 7.3
- Anodic pH after 5 h electrotransport ([3]; anodic gel, listed as Gly-His 250 mM): 7.3
- Initial pH ([3]; anodic gel, prior to application, listed as Gly-His 30 mM): 7.1
- Initial pH ([3]; anodic gel, prior to application, listed as Gly-His 100 mM): 7.4
- Initial pH ([3]; anodic gel, prior to application, listed as Gly-His 250 mM): 7.4
- Cathodic pH after 5 h electrotransport ([3]; cathodic gel, listed as Gly-His 100 mM): 7.3
- Cathodic pH after 5 h electrotransport ([3]; cathodic gel, listed as Gly-His 250 mM): 7.4
- Initial pH ([3]; cathodic gel, prior to application, listed as Gly-His 100 mM): 7.6
- Initial pH ([3]; cathodic gel, prior to application, listed as Gly-His 250 mM): 7.5
- pH control of electrotransport formulations [3]: capable of assuring pH control
- pH control of a cathodic electrotransport formulation [3]: capable of assuring pH control
- pH control of an anodic electrotransport formulation [3]: capable of assuring pH control
- pH control of anodic and cathodic electrotransport formulations [3]: capable of assuring pH control
- pI [4]: 7.55
- pka A [4]: 2.42
- pI ([4]; Table 1): 7.55
- pI ([4]; Table 2): 7.55
- species presenting a net charge (salt form) at the pI ([4]; at pI): 30%
- neutral species at the pI ([4]; at pI, net charge of zero): 70%
- % salt [4]: 22%
- net charge at pH 7.5 ([4]; pH 7.5): essentially zero
- Conductivity at 10^−2 Molar [5]: 52 μS/cm
